Columns and labels:
[1] = biological target: Aldo-keto reductase family 1 member B1 (Rattus norvegicus) (UniProt P07943); assay: (§1) Inhibition of aldose reductase in Albino rat kidney assessed as decrease in NADPH concentration by spectrophotometrically
[2] = biological target: Aldo-keto reductase family 1 member B1 (Rattus norvegicus, UniProt P07943); assay: as §1

Row | SMILES | inhibition [1] [%] | IC50 [2] [nM]
1 | Cc1ccc2occ(/C=C3/SC(=O)NC3=O)c(=O)c2c1 | 52.7 | 944
2 | O=C(O)CN1C(=O)S/C(=C/c2coc3ccccc3c2=O)C1=O | 49.4 | –
3 | O=C1NC(=O)/C(=C\c2coc3ccccc3c2=O)S1 | 42.4 | –
4 | O=C1NC(=O)/C(=C\c2coc3ccc([N+](=O)[O-])cc3c2=O)S1 | 46.7 | –
5 | Cc1cc(C)c2occ(/C=C3/SC(=O)N(CC(=O)O)C3=O)c(=O)c2c1 | 68.6 | 678
6 | O=C(O)CN1C(=O)S/C(=C/c2coc3ccc([N+](=O)[O-])cc3c2=O)C1=O | 82.4 | 261
7 | Cc1ccc2occ(/C=C3/SC(=O)N(CC(=O)O)C3=O)c(=O)c2c1 | 61.2 | 805
8 | CC(C)c1ccc2occ(/C=C3/SC(=O)NC3=O)c(=O)c2c1 | 50.8 | 955
9 | CCOC(=O)CN1C(=O)S/C(=C/c2coc3ccccc3c2=O)C1=O | 8.18 | –

Continued, values first:

Row | inhibition [1] [%] | IC50 [2] [nM] | SMILES
10 | 9.46 | – | CCOC(=O)CN1C(=O)S/C(=C/c2coc3ccc(C(C)C)cc3c2=O)C1=O
11 | 0 | – | CCOC(=O)CN1C(=O)S/C(=C/c2coc3c(C)cc(C)cc3c2=O)C1=O
12 | 77.3 | 522 | CC(C)c1ccc2occ(/C=C3/SC(=O)N(CC(=O)O)C3=O)c(=O)c2c1
13 | 0 | – | CCOC(=O)CN1C(=O)S/C(=C/c2coc3ccc(C)cc3c2=O)C1=O
14 | 49.7 | – | Cc1cc(C)c2occ(/C=C3/SC(=O)NC3=O)c(=O)c2c1

Source: ChEMBL document CHEMBL1154453, “Synthesis and aldose reductase inhibitory activity of some new chromonyl-2,4-thiazolidinediones” (Eur J Med Chem, 2008)
